{"source": "patent US20240067662A1", "about": "“KRAS INHIBITORS” (Bristol-Myers Squibb Company, priority 2022, published 2024)", "note": "pIC50: −log10 of the molar value."}
{"target": "GMPPNP-loaded KRAS G12C (Homo sapiens, UniProt P01116, G12C)", "sequence (P01116 1-188 isoform P01116-2 G12C)": "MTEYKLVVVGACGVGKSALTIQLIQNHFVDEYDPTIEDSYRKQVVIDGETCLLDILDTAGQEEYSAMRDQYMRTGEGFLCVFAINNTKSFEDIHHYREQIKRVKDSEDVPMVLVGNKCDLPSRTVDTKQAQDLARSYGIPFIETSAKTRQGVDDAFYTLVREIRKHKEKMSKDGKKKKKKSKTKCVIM", "assay": "KRAS G12C RAF Disruption Assay (HTRF)", "type": "biochemical", "conditions": "recombinant GMPPNP-loaded KRAS G12C (5 nM), 20 min with compound; GST-RAF1 RBD (9 nM); HTRF signal; read-out: KRASG12C RAF Disruption Assay (IC50)", "procedure": "KRAS^G12C RAF Disruption Assay\nThis is a functional assay that measures activity of compounds against KRAS-G12C^(ON), i.e., the active form of KRAS G12C. Recombinant GMPPNP-loaded KRAS G12C (5 nM) was treated with compound at room temperature for 20 minutes in assay buffer (50 mM Tris pH 7.5, 100 mM NaCl, 1 mM MgCl2, 1 mM DTT, 100ug/ml BSA). Recombinant GST-RAF1 RBD (9 nM) was added, and the reaction mixture was incubated for 20 minutes. SA-Tb (0.25 nM) was added, and the reaction mixture was incubated for 3 hours. HTRF signal was measured (PerkinElmer Envision), the signal ratio (λem 520/λem 495) was calculated, and IC50 values were calculated from the dose-response curve."}
{"molecule": "CN1CCC[C@H]1COc1nc(N2CCN(C(=O)/C(F)=C/c3nccs3)[C@@H](CC#N)C2)c2cnc(-c3cccc4cccc(Cl)c34)c(F)c2n1", "note": "[Compound 21A, 2-((S)-4-(7-(8-chloronaphthalen-1-yl)-8-fluoro-2-(((S)-1-methylpyrrolidin-2-yl)methoxy)pyrido[4,3-d]pyrimidin-4-yl)-1-((Z)-2-fluoro-3-(thiazol-2-yl)acryloyl)piperazin-2-yl)acetonitrile]", "pIC50": 7.17}
{"molecule": "C#Cc1cccc2c(F)ccc(-c3ncc4c(N5CCN(C(=O)/C(F)=C/c6ncccn6)CC5)nc(OC[C@@]56CCCN5C[C@H](F)C6)nc4c3F)c12", "note": "[Compound 88, (Z)-1-(4-(7-(8-ethynyl-4-fluoronaphthalen-1-yl)-8-fluoro-2-(((2R, 7aS)-2-fluorotetrahydro-1H-pyrrolizin-7a(5H)-yl)methoxy)pyrido[4,3-d]pyrimidin-4-yl)piperazin-1-yl)-2-fluoro-3-(pyrimidin-2-yl)prop-2-en-1-one]", "pIC50": 6.00}
{"molecule": "C#Cc1c(F)ccc2cc(O)cc(-c3ncc4c(N5CCN(C(=O)/C(F)=C/c6ccccn6)CC5)nc(OC[C@@H]5CCCN5CCCn5cc(CNC(=O)CCCC[C@@H]6SC[C@@H]7NC(=O)N[C@@H]76)nn5)nc4c3F)c12", "note": "[Compound 112, N-((1-(3-((S)-2-(((7-(8-ethynyl-7-fluoro-3-hydroxynaphthalen-1-yl)-8-fluoro-4-(4-((Z)-2-fluoro-3-(pyridin-2-yl)acryloyl)piperazin-1-yl)pyrido[4,3-d]pyrimidin-2-yl)oxy)methyl)pyrrolidin-1-yl)propyl)-1H-1,2,3-triazol-4-yl)methyl)-5-((3aS,4S,6aR)-2-oxohexahydro-1H-thieno[3,4-d]imidazol-4-yl)pentanamide]", "pIC50": "> 8.70"}
{"molecule": "C#Cc1cccc2cccc(-c3ncc4c(N5CCN(C(=O)/C(F)=C/c6nccs6)C[C@H]5C)nc(OC[C@@]56CCCN5C[C@H](F)C6)nc4c3F)c12", "note": "[Example 76, (Z)-1-((3R)-4-(7-(8-ethynylnaphthalen-1-yl)-8-fluoro-2-(((2R, 7aS)-2-fluorotetrahydro-1H-pyrrolizin-7a(5H)-yl)methoxy)pyrido[4,3-d]pyrimidin-4-yl)-3-methylpiperazin-1-yl)-2-fluoro-3-(thiazol-2-yl)prop-2-en-1-one]", "pIC50": 6.23}
{"molecule": "N#CC[C@H]1CN(c2nc(OC[C@@]34CCCN3C[C@H](F)C4)nc3c(F)c(-c4cc(F)ccc4C(F)(F)F)ncc23)CCN1C(=O)/C(F)=C/c1ccccn1", "note": "[Example 44, 2-((S)-1-((Z)-2-fluoro-3-(pyridin-2-yl)acryloyl)-4-(8-fluoro-7-(5-fluoro-2-(trifluoromethyl)phenyl)-2-(((2R, 7aS)-2-fluorotetrahydro-1H-pyrrolizin-7a(5H)-yl)methoxy)pyrido[4,3-d]pyrimidin-4-yl)piperazin-2-yl)acetonitrile]", "pIC50": 6.44}
{"molecule": "N#CC[C@H]1CN(c2nc(OC[C@@]34CCCN3C[C@H](F)C4)nc3c(F)c(-c4cc(F)ccc4C(F)F)ncc23)CCN1C(=O)/C(F)=C/c1ccccn1", "note": "[Example 42, 2-((S)-4-(7-(2-(difluoromethyl)-5-fluorophenyl)-8-fluoro-2-(((2R, 7aS)-2-fluorotetrahydro-1H-pyrrolizin-7a(5H)-yl)methoxy)pyrido[4,3-d]pyrimidin-4-yl)-1-((Z)-2-fluoro-3-(pyridin-2-yl)acryloyl)piperazin-2-yl)acetonitrile]", "pIC50": 6.12}
{"molecule": "C#Cc1c(F)ccc2cc(O)cc(-c3ncc4c(N5C[C@H]6CC[C@@H](C5)N6C(=O)/C(F)=C/c5ccc(C)cn5)nc(OC[C@@]56CCCN5C[C@H](F)C6)nc4c3F)c12", "note": "[Compound 6, (Z)-1-((1R, 5S)-3-(7-(8-ethynyl-7-fluoro-3-hydroxynaphthalen-1-yl)-8-fluoro-2-(((2R, 7aS)-2-fluorotetrahydro-1H-pyrrolizin-7a(5H)-yl)methoxy)pyrido[4,3-d]pyrimidin-4-yl)-3,8-diazabicyclo[3.2.1]octan-8-yl)-2-fluoro-3-(5-methylpyridin-2-yl)prop-2-en-1-one]", "pIC50": 7.35}
{"molecule": "C#Cc1cccc2cccc(-c3ncc4c(N5CCC6(CCN6C(=O)/C(F)=C/c6ncccn6)C5)nc(OC[C@@]56CCCN5C[C@H](F)C6)nc4c3F)c12", "note": "(single isomer, unassigned) [Compound 105]", "pIC50": 5.01}
{"molecule": "C#Cc1cccc2cccc(-c3ncc4c(N5CCC6(CCN6C(=O)/C(F)=C/c6ccccn6)C5)nc(OC[C@@]56CCCN5C[C@H](F)C6)nc4c3F)c12", "note": "(single isomer, unassigned) [Compound 104]", "pIC50": 4.80}
{"molecule": "C#Cc1cccc2cccc(-c3ncc4c(N(C)[C@H]5CN(C(=O)/C(F)=C/c6ccccn6)C[C@H]5F)nc(OC[C@@]56CCCN5C[C@H](F)C6)nc4c3F)c12", "note": "[Compound 128, (Z)-1-((3S,4R)-3-((7-(8-ethynylnaphthalen-1-yl)-8-fluoro-2-(((2R, 7aS)-2-fluorotetrahydro-1H-pyrrolizin-7a(5H)-yl)methoxy)pyrido[4,3-d]pyrimidin-4-yl)(methyl)amino)-4-fluoropyrrolidin-1-yl)-2-fluoro-3-(pyridin-2-yl)prop-2-en-1-one]", "pIC50": 7.52}
{"molecule": "C#Cc1cccc2cccc(-c3ncc4c(N5CCCN(C(=O)/C(F)=C/c6ccccn6)CC5)nc(OC[C@@]56CCCN5C[C@H](F)C6)nc4c3F)c12", "note": "[Example 77, (Z)-1-(4-(7-(8-ethynylnaphthalen-1-yl)-8-fluoro-2-(((2R, 7aS)-2-fluorotetrahydro-1H-pyrrolizin-7a(5H)-yl)methoxy)pyrido[4,3-d]pyrimidin-4-yl)-1,4-diazepan-1-yl)-2-fluoro-3-(pyridin-2-yl)prop-2-en-1-one]", "pIC50": 6.92}
{"molecule": "C#Cc1cccc2cccc(-c3ncc4c(N5CCC6C5CCN6C(=O)/C(F)=C/c5ccccn5)nc(OC[C@@]56CCCN5C[C@H](F)C6)nc4c3F)c12", "note": "(single isomer, unassigned) [Compound 108]", "pIC50": 5.37}
{"molecule": "CN(c1nc(OC[C@@]23CCCN2C[C@H](F)C3)nc2c(F)c(-c3cccc4cccc(C#N)c34)ncc12)[C@@H]1CCN(C(=O)/C(F)=C/c2ccccn2)C1", "note": "[Compound 113, 8-(8-fluoro-4-(((R)-1-((Z)-2-fluoro-3-(pyridin-2-yl)acryloyl)pyrrolidin-3-yl)(methyl)amino)-2-(((2R, 7aS)-2-fluorotetrahydro-1H-pyrrolizin-7a(5H)-yl)methoxy)pyrido[4,3-d]pyrimidin-7-yl)-1-naphthonitrile]", "pIC50": 6.81}
{"molecule": "C#Cc1c(F)ccc2cc(O)cc(-c3ncc4c(N5C[C@H]6CC[C@@H](C5)N6C(=O)/C(F)=C/c5ncccn5)nc(OC[C@@]56CCCN5C[C@H](F)C6)nc4c3F)c12", "note": "[Compound 7, (Z)-1-((1R, 5S)-3-(7-(8-ethynyl-7-fluoro-3-hydroxynaphthalen-1-yl)-8-fluoro-2-(((2R, 7aS)-2-fluorotetrahydro-1H-pyrrolizin-7a(5H)-yl)methoxy)pyrido[4,3-d]pyrimidin-4-yl)-3,8-diazabicyclo[3.2.1]octan-8-yl)-2-fluoro-3-(pyrimidin-yl)prop-2-en-1-one]", "pIC50": 7.80}
{"molecule": "N#CC[C@H]1CN(c2nc(OC[C@@]34CCCN3C[C@H](F)C4)nc3c(F)c(-c4csc5ccccc45)ncc23)CCN1C(=O)/C(F)=C/c1ccccn1", "note": "[Example 35, 2-((S)-4-(7-(benzo[b]thiophen-3-yl)-8-fluoro-2-(((2R, 7aS)-2-fluorotetrahydro-1H-pyrrolizin-7a(5H)-yl)methoxy)pyrido[4,3-d]pyrimidin-4-yl)-1-((Z)-2-fluoro-3-(pyridin-2-yl)acryloyl)piperazin-2-yl)acetonitrile]", "pIC50": 6.37}
{"molecule": "C#Cc1cccc2cccc(-c3ncc4c(N(C)C5CCN(C(=O)/C(F)=C/c6nccs6)C5C)nc(OC[C@@]56CCCN5C[C@H](F)C6)nc4c3F)c12", "note": "(single isomer, unassigned) [Example 73 trans isomer 1]", "pIC50": 5.80}
{"molecule": "C#Cc1c(F)ccc2cccc(-c3ncc4c(N5CCN(C(=O)/C(F)=C/c6ncccn6)C[C@@H]5C)nc(OC[C@@]56CCCN5C[C@H](F)C6)nc4c3F)c12", "note": "[Compound 90, (Z)-1-((S)-4-(7-(8-ethynyl-7-fluoronaphthalen-1-yl)-8-fluoro-2-(((2R, 7aS)-2-fluorotetrahydro-1H-pyrrolizin-7a(5H)-yl)methoxy)pyrido[4,3-d]pyrimidin-4-yl)-3-methylpiperazin-1-yl)-2-fluoro-3-(pyrimidin-2-yl)prop-2-en-1-one]", "pIC50": 6.96}
{"molecule": "C#Cc1c(F)ccc2cc(O)cc(-c3ncc4c(N5CCN(C(=O)/C(F)=C/c6ccccn6)CC5)nc(OC[C@]56CCC[C@H]5N(C)CCC6)nc4c3F)c12", "note": "[Example 59, (Z)-1-(4-(7-(8-ethynyl-7-fluoro-3-hydroxynaphthalen-1-yl)-8-fluoro-2-(((4aS, 7aR)-1-methyloctahydro-4aH-cyclopenta[b]pyridin-4a-yl)methoxy)pyrido[4,3-d]pyrimidin-4-yl)piperazin-1-yl)-2-fluoro-3-(pyridin-2-yl)prop-2-en-1-one]", "pIC50": 8.70}
{"molecule": "C#Cc1cccc2cccc(-c3nc(OC)c4c(N5CCN(C(=O)/C(F)=C/c6ccccn6)CC5)nc(OC[C@@]56CCCN5C[C@H](F)C6)nc4c3F)c12", "note": "[Compound 109, (Z)-1-(4-(7-(8-ethynylnaphthalen-1-yl)-8-fluoro-2-(((2R, 7aS)-2-fluorotetrahydro-1H-pyrrolizin-7a(5H)-yl)methoxy)-5-methoxypyrido[4,3-d]pyrimidin-4-yl)piperazin-1-yl)-2-fluoro-3-(pyridin-2-yl)prop-2-en-1-one]", "pIC50": 6.62}
